Measured values as given in patent publication US20250195521A1 (Revolution Medicines, Inc., priority 2020, published 2025).

Experiments:
[1] = tested on: NCI-H358 cells (K-Ras G12C); test: CellTiter-Glo cell viability, NCI-H358; assay type: cell-based, human; conditions: Homo sapiens, NCI-H358, 120 h, K-Ras G12C, 5-day treatment; read-out: H358 Cell Viability IC50
Outline: (§1)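 Five-day treatment of K-Ras mutant cells with directly dispensed compound; ATP-based luminescence endpoint. Percent of DMSO signal fit to four-parameter logistic curve.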

[2] = tested on: K-Ras G12C (NCI-H358 cells); test: Potency assay: pERK in NCI-H358 cells; assay type: cell-based, human; conditions: Homo sapiens; NCI-H358 cells, 4 hours; read-out: pERK EC50 (H358 KRAS G12C)
Outline: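 Cells plated the day before were exposed for 4 h at 37° C, 5% CO2 to a 10-point, 3-fold DMSO dilution series (10 mM top stock), in duplicate. Phospho-ERK was read by AlphaLISA SureFire Ultra or by In-Cell Western with DRAQ5 DNA stain, and IC50 came from a 4-parameter sigmoidal fit.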

[3] = tested on: Capan-1 cells (K-Ras G12V); test: CellTiter-Glo cell viability, Capan-1; assay type: cell-based, human; conditions: Homo sapiens, CAPAN-1, 120 h, K-Ras G12V, 5-day treatment; read-out: Capan-1 Cell Viability IC50
Outline: as §1

KRAS WT = KRAS WT (Homo sapiens (Human), UniProt P01116+P62937); test: Ras-Raf disruption/FRET/MOA assay (BRAF RBD, Cyclophilin A); assay type: biochemical; conditions: read-out: KRAS WT FRET data IC50
Outline: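 First, 25 μM Cyclophilin A, 12.5 nM His6-Ras-GMPPNP and 50 nM GST-BRAF RBD are mixed with diluted compound at pH 7.3. Next, 3 h at 25° C. Then 10 nM anti-His Eu-W1024 plus 50 nM anti-GST allophycocyanin for 1.5 h before TR-FRET reading.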

NCI-H358 (K-Ras G12C) = test: CellTiter-Glo cell viability assay, NCI-H358; assay type: cell-based, human; conditions: Homo sapiens, NCI-H358, 120 h, 5-day treatment; read-out: H358 Cell Viability assay data (K-Ras G12C, IC50)
Outline: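 Five-day compound treatment of NCI-H358 cells, then CellTiter-Glo luminescence, percent of DMSO, four-parameter logistic fit.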

Sequence of KRAS WT (P01116 other isoform, or with tags, fused parts or gaps): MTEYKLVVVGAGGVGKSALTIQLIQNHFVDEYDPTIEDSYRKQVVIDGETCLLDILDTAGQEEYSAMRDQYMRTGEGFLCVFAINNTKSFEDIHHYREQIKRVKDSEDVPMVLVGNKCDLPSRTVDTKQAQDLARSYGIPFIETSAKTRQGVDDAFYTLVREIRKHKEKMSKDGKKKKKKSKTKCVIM
Sequence of KRAS WT (P62937 whole entry): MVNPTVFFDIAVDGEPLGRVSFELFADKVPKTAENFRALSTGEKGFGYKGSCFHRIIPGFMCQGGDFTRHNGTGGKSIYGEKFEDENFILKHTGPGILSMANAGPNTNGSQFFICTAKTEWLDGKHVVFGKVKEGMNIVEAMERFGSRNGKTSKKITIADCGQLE

| IC50 [1] [nM] | EC50 [2] [nM] | IC50 (KRAS WT) [nM] | IC50 (NCI-H358 (K-Ras G12C)) [nM] | SMILES | IC50 [3] [nM] |
| --- | --- | --- | --- | --- | --- |
| 100 to 1000 | < 5000 | 100 to 1000 | < 10 | CCn1c(-c2cccnc2[C@H](C)OC)c2c3cc(ccc31)-c1csc(n1)C[C@H](NC(=O)[C@H](C(C)C)N(C)C(=O)N1C[C@@H](C)N(C)C[C@@H]1C)C(=O)N1CCC[C@H](N1)C(=O)OCC(C)(C)C2 [Compound A292] | 100 to 1000 |
| 10 to 100 | < 5000 | 100 to 1000 | < 10 | CCn1c(-c2cccnc2[C@H](C)OC)c2c3cc(ccc31)-c1csc(n1)C[C@H](NC(=O)[C@H](C(C)C)N(C)C(=O)N1CC(N3CCC3)C1)C(=O)N1CCC[C@H](N1)C(=O)OCC(C)(C)C2 [Compound A295] | 10 to 100 |
| 100 to 1000 | < 5000 | 1000 to 10000 | < 10 | CCn1c(-c2cccnc2[C@H](C)OC)c2c3cc(ccc31)-c1csc(n1)C[C@H](NC(=O)[C@H](C(C)C)N1CCCN(C)C1=O)C(=O)N1CCC[C@H](N1)C(=O)OCC(C)(C)C2 [Compound A317] | 1000 to 10000 |
| 10 to 100 | < 5000 | 10 to 100 | < 10 | CCN(CC)C(=O)N(C)[C@H](C(=O)N[C@H]1Cc2nc(cs2)-c2ccc3c(c2)c(c(-c2cccnc2[C@H](C)OC)n3CC)CC(C)(C)COC(=O)[C@@H]2CCCN(N2)C1=O)C(C)C [Compound A351] | 100 to 1000 |
| 100 to 1000 | < 5000 | 100 to 1000 | 10 to 100 | CCn1c(-c2cccnc2[C@H](C)OC)c2c3cc(ccc31)-c1csc(n1)C[C@H](NC(=O)C1CC1)C(=O)N1CCC[C@H](N1)C(=O)OCC(C)(C)C2 [Compound A367] | 100 to 1000 |
| 100 to 1000 | < 5000 | 10 to 100 | < 10 | CCn1c(-c2cccnc2[C@H](C)OC)c2c3cc(ccc31)-c1cc(O)cc(c1)C[C@H](NC(=O)[C@H](C(C)C)N(C)C(=O)[C@@H]1CCCC[C@@H]1N)C(=O)N1CCC[C@H](N1)C(=O)OCC(C)(C)C2 [Compound A395] | 100 to 1000 |
| 10 to 100 | < 5000 | 100 to 1000 | < 10 | CCn1c(-c2cccnc2[C@H](C)OC)c2c3cc(ccc31)-c1csc(n1)C[C@H](NC(=O)[C@H](C(C)C)N(C)C(=O)N1CCOC[C@@H]1C)C(=O)N1CCC[C@H](N1)C(=O)OCC(C)(C)C2 [Compound A403] | 10 to 100 |
| 10 to 100 | < 5000 | 10 to 100 | 10 to 100 | CCn1c(-c2cccnc2[C@H](C)OC)c2c3cc(ccc31)-c1cc(O)cc(c1)C[C@H](NC(=O)[C@H](C(C)C)N(C)C(=O)C13CC(CO1)C3)C(=O)N1CCC[C@H](N1)C(=O)OCC(C)(C)C2 [Compound A406] | 100 to 1000 |
| 100 to 1000 | < 5000 | 10 to 100 | 10 to 100 | CCn1c(-c2cccnc2[C@H](C)OC)c2c3cc(ccc31)-c1cc(O)cc(c1)C[C@H](NC(=O)[C@H](C(C)C)N(C)C(=O)C1CCC3(CCOC3)O1)C(=O)N1CCC[C@H](N1)C(=O)OCC(C)(C)C2 (stereo partly shown) [Compound A409] | 100 to 1000 |
| 100 to 1000 | < 5000 | 100 to 1000 | 10 to 100 | CCn1c(-c2cccnc2[C@H](C)OC)c2c3cc(ccc31)-c1cc(O)cc(c1)C[C@H](NC(=O)[C@H](C(C)C)N(C)C(=O)[C@@H]1[C@H]3CC[C@H](C3)[C@@H]1N)C(=O)N1CCC[C@H](N1)C(=O)OCC(C)(C)C2 [Compound A417] | 1000 to 10000 |
| 10 to 100 | < 5000 | 100 to 1000 | 10 to 100 | CCn1c(-c2cccnc2[C@H](C)OC)c2c3cc(ccc31)-c1csc(n1)C[C@H](NC(=O)[C@H](C(C)C)N(C)C(=O)N1CCO[C@@]3(CCN(C)C3)C1)C(=O)N1CCC[C@H](N1)C(=O)OCC(C)(C)C2 [Compound A436] | 10 to 100 |
| 10 to 100 | < 5000 | 100 to 1000 | < 10 | CCn1c(-c2cc(N3CCN(C)CC3)cnc2[C@H](C)OC)c2c3cc(ccc31)-c1csc(n1)C[C@H](NC(=O)[C@H](C(C)C)N(C)C(=O)[C@@H]1CCCS1(=O)=O)C(=O)N1CCC[C@H](N1)C(=O)OCC(C)(C)C2 [Compound A440] | 10 to 100 |
| 10 to 100 | < 5000 | 100 to 1000 | < 10 | CCn1c(-c2cccnc2[C@H](C)OC)c2c3cc(ccc31)-c1csc(n1)C[C@H](NC(=O)[C@H](C(C)C)N(C)C(=O)N1C[C@@H]3OCCN(C)[C@@H]3C1)C(=O)N1CCC[C@H](N1)C(=O)OCC(C)(C)C2 [Compound A444] | 10 to 100 |
| 100 to 1000 | < 5000 | 1000 to 10000 | < 10 | CCn1c(-c2cccnc2[C@H](C)OC)c2c3cc(ccc31)-c1csc(n1)C[C@H](NC(=O)[C@H](C(C)C)N(C)C(=O)N1C[C@H]3CN(C)CC[C@H]31)C(=O)N1CCC[C@H](N1)C(=O)OCC(C)(C)C2 [Compound A462] | 100 to 1000 |
| 10 to 100 | < 5000 | 10 to 100 | < 10 | CCn1c(-c2cccnc2[C@H](C)OC)c2c3cc(ccc31)-c1csc(n1)C[C@H](NC(=O)[C@H](C(C)C)N(C)C(=O)N1CCC[C@H](N(C)C)CC1)C(=O)N1CCC[C@H](N1)C(=O)OCC(C)(C)C2 [Compound A493] | 100 to 1000 |
| 10 to 100 | < 5000 | 100 to 1000 | < 10 | CCn1c(-c2cccnc2[C@H](C)OC)c2c3cc(ccc31)-c1csc(n1)C[C@H](NC(=O)[C@H](C(C)C)N(C)C(=O)N(C)C1(C)COC1)C(=O)N1CCC[C@H](N1)C(=O)OCC(C)(C)C2 [Compound A527] | 10 to 100 |
| 10 to 100 | < 5000 | 100 to 1000 | < 10 | CCn1c(-c2cccnc2[C@H](C)OC)c2c3cc(ccc31)-c1csc(n1)C[C@H](NC(=O)[C@H](C(C)C)N(C)C(=O)N1CC([C@H](C)COC)C1)C(=O)N1CCC[C@H](N1)C(=O)OCC(C)(C)C2 [Compound A533] | 10 to 100 |
| 10 to 100 | < 5000 | 10 to 100 | < 10 | CCn1c(-c2cccnc2[C@H](C)OC)c2c3cc(ccc31)-c1csc(n1)C[C@H](NC(=O)[C@H](C(C)C)N(C)C(=O)N1CCN3C(=O)CN(C)C[C@H]3C1)C(=O)N1CCC[C@H](N1)C(=O)OCC(C)(C)C2 [Compound A537] | 10 to 100 |
| 10 to 100 | < 5000 | 100 to 1000 | 10 to 100 | CCn1c(-c2cccnc2[C@H](C)OC)c2c3cc(ccc31)-c1csc(n1)C[C@H](NC(=O)[C@H](C(C)C)N(C)C(=O)N1CC([C@H](C)N(C)C)C1)C(=O)N1CCC[C@H](N1)C(=O)OCC(C)(C)C2 [Compound A538] | 10 to 100 |
| 100 to 1000 | < 5000 | 10 to 100 | 10 to 100 | CCn1c(-c2cccnc2[C@H](C)OC)c2c3cc(ccc31)-c1csc(n1)C[C@H](NC(=O)[C@H](C(C)C)N(C)C(=O)N1CCCC13CN(C)C3)C(=O)N1CCC[C@H](N1)C(=O)OCC(C)(C)C2 [Compound A545] | 100 to 1000 |
| 10 to 100 | < 5000 | 10 to 100 | < 10 | CCn1c(-c2cccnc2[C@H](C)OC)c2c3cc(ccc31)-c1cc(O)cc(c1)C[C@H](NC(=O)[C@H](C(C)C)N(C)C(=O)[C@@H]1OCC[C@H]1c1ccccc1)C(=O)N1CCC[C@H](N1)C(=O)OCC(C)(C)C2 [Compound A584] | 100 to 1000 |
| 10 to 100 | < 5000 | 10 to 100 | < 10 | CCn1c(-c2cccnc2[C@H](C)OC)c2c3cc(ccc31)-c1csc(n1)C[C@H](NC(=O)[C@H](C(C)C)N(C)C(=O)N1CCN(C(=O)[C@@H]3CCCN3C)CC1)C(=O)N1CCC[C@H](N1)C(=O)OCC(C)(C)C2 [Compound A596] | 100 to 1000 |
| 10 to 100 | < 5000 | 100 to 1000 | < 10 | CCn1c(-c2cccnc2[C@H](C)OC)c2c3cc(ccc31)-c1csc(n1)C[C@H](NC(=O)[C@H](C(C)C)N(C)C(=O)N1CC(O)(CN(C)C)C1)C(=O)N1CCC[C@H](N1)C(=O)OCC(C)(C)C2 [Compound A597] | 100 to 1000 |
